Data set [1] concerns the target T1, KRAS G12D (Homo sapiens, UniProt P01116, G12D). As to conditions: AGS cell line, In Cell Western Blotting, KRAS^G12D vs GAPDH.
For data set [2], the system named is H358. In words: Cell proliferation experiment (CellTiter-Glo). It counts as cell-based. The conditions noted are these: Homo sapiens, NCI-H358; H358, KRAS mutation type G12C; 96 h incubation. For orientation: Cellular ATP, detected with luciferase, serves as a proxy for viable cell number.
Data set [3] deals with T1, KRAS G12D. Briefly: cell-based. The conditions noted are these: AGS.
Data set [4] is described as follows: in vitro. The conditions noted are these: mouse, microsomes.
A short description of data set [5]: in vitro. As to conditions: human, microsomes.
A short description of data set [6]: in vitro. The conditions noted are these: rat, microsomes.
Data set [7] has as its system AGS. In words: Cell proliferation experiment (CellTiter-Glo). It counts as cell-based. As to conditions: Homo sapiens, AGS, 96 h, read-out: IC50(nM) AGS.
Data set [8] concerns SW620. Briefly: Cell proliferation experiment (CellTiter-Glo). The conditions noted are these: Homo sapiens, SW-620, 96 h, read-out: IC50(nM) SW620. It counts as cell-based.
Data set [9] can be described thus: PK study in Balbc mice (whole blood). In kind it is in vivo. As to conditions: Female Balbc mice, IV 1 mg/kg. Here is the method:
Example 7 PK Study of Compound 2 in Balbc Mice
Compound 2 was mixed with the vehicle (10% DMSO / 5% Solutol HS 15 / 85% saline), vortexed, and sonicated to prepare a clear solution at 0.2 mg/mL. Female Balbc mice aged 6 to 7 weeks (non-fasted) were intravenously administered Compound 2. Whole blood was collected at specified time points. Drug concentration was analyzed by LC-MS/MS, and pharmacokinetic parameters were calculated using Phoenix WinNonlin software (Pharsight Corporation, USA). Table 10 Mouse PK Data for Intravenous Compound 2 Monotherapy

Usually IC50 stands for the point on the concentration scale where inhibition reaches its midpoint. The term microsomal CLint denotes the capacity of the preparation to metabolise the compound, expressed as a volume cleared per time. Broadly, the AUC(0-t) is the area under the concentration-time curve up to a stated or last time point. Lower therefore signals less exposure. In general, half-life refers to the time in which the quantity being followed falls by half. Read a high half-life as slow decline.

T1 sequence (P01116 1-188 isoform P01116-2 G12D): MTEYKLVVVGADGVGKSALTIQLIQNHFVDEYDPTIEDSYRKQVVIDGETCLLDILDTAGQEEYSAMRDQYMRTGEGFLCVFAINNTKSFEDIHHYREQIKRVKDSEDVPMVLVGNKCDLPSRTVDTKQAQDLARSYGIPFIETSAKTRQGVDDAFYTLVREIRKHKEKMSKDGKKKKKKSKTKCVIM

For the compound `CCc1c(F)ccc2cc(O)cc(-c3ncc4c(N5CCCC(C)(O)C5)nc(OC[C@]56CCCN5[C@@H](COC(=O)N5CCC7(CC5)CC(C(=O)N[C@H](C(=O)N5C[C@H](O)C[C@H]5C(=O)N[C@@H](C)c5ccc(-c8scnc8C)cc5)C(C)(C)C)C7)CC6)nc4c3F)c12` (stereo partly drawn) [Compound 2, ((3R,7aR)-7a-(((7-(8-ethyl-7-fluoro-3-hydroxynaphthalen-1-yl)-8-fluoro-4-(3-hydroxy-3-methylpiperidin-1-yl)pyrido[4,3-d]pyrimidin-2-yl)oxy)methyl)hexahydro-1H-pyrrolizin-3-yl)methyl 2-(((S)-1-((2S,4R)-4-hydroxy-2-(((S)-1-(4-(4-methylthiazol-5-yl)phenyl)ethyl)carbamoyl)pyrrolidin-1-yl)-3,3-dimethyl-1-oxobutan-2-yl)carbamoyl)-7-azaspiro[3.5]nonane-7-carboxylate], the “The in vitro intrinsic clearance in liver microsomes (CLint, in vitro, µL/min/mg protein) Dog” value worked out at 0.0 µL/min/mg protein. Besides, in data set [1], the DC50 came out at 316 nM. This compound displayed an IC50 in data set [2] of 143 nM. In [3], this compound had a Dmax of 95%. In data set [4], this compound returned a microsomal CLint of 16.6 µL/min/mg. The microsomal CLint in [5] was 31 µL/min/mg. In data set [6], this compound had a microsomal CLint of 11.6 µL/min/mg. In addition, the IC50 in [7] turned out to be 44 nM. For the same compound, the IC50 in data set [8] was determined as 501 nM. Also, in data set [9], the “Cl_obs” value is recorded as 3.77 mL/min/kg and the “Vss_obs” value was 0.586 L/kg. In [9] (mouse), this compound showed an AUC(0-t) of 4380 ng·h/mL, a C0 of 8790 ng/mL and a half-life of 6.49 h.

The values are drawn from EP4631940A1, “COMPOUND TARGETING PAN-KRAS PROTEIN DEGRADATION AGENT AND USE THEREOF” (Betta Pharmaceuticals Co., Ltd., priority 2022, dated 2024).
